One assay concerns DIGSA. In words: A. Herbicidal pre-emergence action on harmful plants (Tables A). It counts as in vivo, Digitaria sanguinalis. The procedure, abridged: (§1)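 Greenhouse pre-emergence test: compound applied to the soil surface at 1280 g/ha or below, and herbicidal effect rated visually at ca. 3 weeks on a 0–100% scale against untreated plants.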
The next assay relates to SETVI. The assay is described as above. In kind it is in vivo, Setaria viridis. The note with it: visual grading after ca. 3 weeks vs untreated controls, 100% = plants have died off, 0% = as control plants. Summed up: as §1
The subject of a further assay is ECHCG. Described as above. In kind it is in vivo, Echinochloa crus-galli. The settings on record: visual grading after ca. 3 weeks vs untreated controls, 100% = plants have died off, 0% = as control plants. The procedure, abridged: as §1
A further assay has as its system VIOTR. Description: C. Herbicidal pre-emergence action, weed and crop plants (Tables C). It counts as in vivo, Viola tricolor. The settings on record: application rate 320 g/ha; Table C12a. Summed up: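 Seeds were sown in sandy loam and covered with soil. WP or EC formulations were sprayed onto the soil surface as aqueous suspension or emulsion with 0.5% additive, at rates of 320 g/ha or below. Plants were kept in a greenhouse, and damage was scored visually after about 3 weeks as % effect versus untreated controls (100% = dead, 0% = like control).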

The subject of another assay is TRZAS. Description: F. Post-emergence effects on crop plants (Tables F). It counts as in vivo, Triticum aestivum. The note with it: crop plant. The procedure, abridged: (§2)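 Plants were grown in sandy loam in a greenhouse and sprayed post-emergence at the single-leaf stage, 2–3 weeks after sowing. Visual damage was scored after ca. 3 weeks against untreated controls (0% = as control, 100% = dead).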

The test system of the next assay is POAAN. In words: B. Herbicidal post-emergence action on harmful plants (Tables B). In kind it is in vivo, Poa annua. Summed up:
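Activity was scored visually as % damage (100% = dead, 0% = like untreated) about 3 weeks after treatment. Plants at the one-leaf stage, 2-3 weeks old, were sprayed with WP/EC formulations plus 0.5% additive (600 L/ha water, up to 1280 g/ha). Plants were grown in sandy loam in a greenhouse.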

In the next assay the test system is GLXMA. In words: F. Post-emergence effects on crop plants (Tables F). The note with it: application rate 320 g/ha, crop plant. It counts as in vivo, Glycine max. The procedure, abridged:
as §2

For another assay, the system named is ZEAMX. The assay is described as above. In kind it is in vivo, Zea mays. The settings on record: crop plant. The procedure, abridged: as §2
A further assay relates to STEME. In words: A. Herbicidal pre-emergence action on harmful plants (Tables A). In kind it is in vivo, Stellaria media. The note with it: visual grading after ca. 3 weeks vs untreated controls, 100% = plants have died off, 0% = as control plants. The procedure, abridged:
as §1

In a further assay the test system is BRSNW. In words: F. Post-emergence effects on crop plants (Tables F). It counts as in vivo, Brassica napus. The note with it: application rate 320 g/ha, crop plant. The procedure, abridged:
as §2

On to `COCc1c(C(=O)N2CCCC2Cc2ccccc2F)cnn1C` (single isomer, unassigned) [Example I-157], for which the “pre-emergence activity against DIGSA” value in the assay with DIGSA (application rate 80 g/ha, Table A12c) amounted to 100%; in the assay on DIGSA (application rate 320 g/ha, Table A12b), 100%; in the assay with DIGSA (application rate 1280 g/ha, Table A12a) it was 100%. Besides, the “pre-emergence activity against SETVI” value with SETVI (application rate 320 g/ha) and with SETVI (application rate 1280 g/ha) was 90% each time. In addition, the “pre-emergence activity against ECHCG” value in the assay with ECHCG (application rate 80 g/ha), in the assay on ECHCG (application rate 320 g/ha) and in the assay with ECHCG (application rate 1280 g/ha) was 100% in each case. Moreover, the “pre-emergence activity against VIOTR” value in the assay on VIOTR worked out at 90%. In addition, the “post-emergence activity against TRZAS in %” value in the assay on TRZAS (application rate 80 g/ha) amounted to 0%; with TRZAS (application rate 320 g/ha) it was 20%. The “post-emergence activity against POAAN” value in the assay with POAAN (application rate 320 g/ha, Table B7b) came to 100%; in the assay with POAAN (application rate 1280 g/ha, Table B7a), 100%. The “post-emergence activity against GLXMA in %” value in the assay on GLXMA was 0%. Besides, the “post-emergence activity against ZEAMX in %” value with ZEAMX (application rate 80 g/ha) and in the assay with ZEAMX (application rate 320 g/ha) was 0% in each case. Further, the “pre-emergence activity against STEME” value with STEME (application rate 320 g/ha) amounted to 90%; with STEME (application rate 1280 g/ha) it was 100%. The “post-emergence activity against BRSNW in %” value in the assay on BRSNW is 0%.

(Values after patent EP4417602A1, “SUBSTITUTED PYRAZOLE CARBOXAMIDES, SALTS THEREOF AND THEIR USE AS HERBICIDALLY ACTIVE SUBSTANCES” (Bayer AG, priority 2023, dated 2024).)
